Measurements from the supplement of paper PMC10627819.

How the values were obtained:
Assay in all cases: Bliss interaction score (quartile over a dose matrix) (fitness difference); higher = more antagonism (negative = synergy)
B. subtilis 168 = test system: B. subtilis 168
Outline: (§1)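 Growth in each well was taken as OD595 at entry into stationary phase. Dividing by the plate's robust no-drug mean and capping at 1 gave fitness, and single-drug fitness was inferred from the combination data. The Bliss score, observed minus product-expected fitness, is summarised by quartiles over technical, biological and donor/recipient replicates.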

S. aureus DSM 20231 = test system: S. aureus DSM 20231
Outline: as §1

S. aureus Newman = test system: S. aureus Newman
Outline: as §1

S. pneumoniae D39V = test system: S. pneumoniae D39V
Outline: as §1
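Also: first quartile when negative (synergy) and third quartile when positive (antagonism).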

Structure (SMILES)	Bliss interaction score (B. subtilis 168)	Bliss interaction score (S. aureus DSM 20231)	Bliss interaction score (S. aureus Newman)	Bliss interaction score (S. pneumoniae D39V)
N#CC(C#N)=NNc1cccc(Cl)c1 [CCCP] + C/C(=C\C(=O)OCCCCCCCCC(=O)O)C[C@@H]1OC[C@H](C[C@@H]2O[C@H]2[C@@H](C)[C@H](C)O)[C@@H](O)[C@H]1O [Pseudomonic acid]	-0.137	0.0141	-0.0111	0.0939
CC(=O)Oc1ccccc1C(=O)O [Acetylsalicylicacid] + CO/N=C(\C(=O)N[C@@H]1C(=O)N2C(C(=O)O)=C(COC(C)=O)CS[C@H]12)c1csc(N)n1 [Cefotaxime]	0.172	-0.1	-0.0434	0.138
N#CC(C#N)=NNc1cccc(Cl)c1 [CCCP] + CN[C@@H]1[C@H](O)[C@H](NC)[C@H]2O[C@@]3(O)C(=O)C[C@@H](C)O[C@H]3O[C@@H]2[C@H]1O [Spectinomycin]	0.0317	0.0771	-0.0505	0.0475
CC1(C)S[C@@H]2[C@H](NC(=O)Cc3ccccc3)C(=O)N2[C@H]1C(=O)O [PenicillinG] + COc1ccc(C[C@H](N)C(=O)N[C@H]2[C@@H](O)[C@H](n3cnc4c(N(C)C)ncnc43)O[C@@H]2CO)cc1 [Puromycin]	0.0536	-0.0369	0.0759	0.0834
N#CC(C#N)=NNc1cccc(Cl)c1 [CCCP] + O=C(O[C@@H]1Cc2c(O)cc(O)cc2O[C@@H]1c1cc(O)c(O)c(O)c1)c1cc(O)c(O)c(O)c1 [EGCG]	-0.0905	-0.0526	-0.0367	0.105
CC(=O)Oc1ccccc1C(=O)O [Acetylsalicylicacid] + C[C@@H](O)[C@H]1C(=O)N2C(C(=O)O)=C(SCCNC=N)C[C@H]12 [Imipenem]	-0.34	0.0498	0.0337	0.0958
CC(=O)Oc1ccccc1C(=O)O [Acetylsalicylicacid] + CO[C@H]1/C=C/O[C@@]2(C)Oc3c(C)c(O)c4c(O)c(c(/C=N/N5CCN(C)CC5)c(O)c4c3C2=O)NC(=O)/C(C)=C\C=C\[C@H](C)[C@H](O)[C@@H](C)[C@@H](O)[C@@H](C)[C@H](OC(C)=O)[C@@H]1C [Rifampicin]	0.131	0.0617	0.036	0.0476
O=C(O)c1cn(C2CC2)c2cc(N3CCNCC3)c(F)cc2c1=O [Ciprofloxacin] + CC[C@H]1OC(=O)[C@H](C)[C@@H](O[C@H]2C[C@@](C)(OC)[C@@H](O)[C@H](C)O2)[C@H](C)[C@@H](O[C@@H]2O[C@H](C)C[C@H](N(C)C)[C@H]2O)[C@](C)(O)C[C@@H](C)C(=O)[C@H](C)[C@@H](O)[C@]1(C)O [Erythromycin]	0.211	0.0597	0.0474	0.065
CN(C)[C@@H]1C(O)=C(C(N)=O)C(=O)[C@@]2(O)C(O)=C3C(=O)c4c(O)ccc(Cl)c4[C@@](C)(O)[C@H]3C[C@@H]12 [Clortetracycline] + CC[C@H]1OC(=O)[C@H](C)[C@@H](O[C@H]2C[C@@](C)(OC)[C@@H](O)[C@H](C)O2)[C@H](C)[C@@H](O[C@@H]2O[C@H](C)C[C@H](N(C)C)[C@H]2O)[C@](C)(O)C[C@@H](C)C(=O)[C@H](C)[C@@H](O)[C@]1(C)O [Erythromycin]	-0.214	-0.118	-0.0583	0.0677
CO/N=C(\C(=O)N[C@@H]1C(=O)N2C(C(=O)O)=C(COC(N)=O)CS[C@H]12)c1ccco1 [Cefuroxime] + O=C(N[C@H](CO)[C@H](O)c1ccc([N+](=O)[O-])cc1)C(Cl)Cl [Chloramphenicol]	0.162	-0.341	-0.0407	-0.0245
CN(C)[C@@H]1C(O)=C(C(N)=O)C(=O)[C@@]2(O)C(O)=C3C(=O)c4c(O)ccc(Cl)c4[C@@](C)(O)[C@H]3C[C@@H]12 [Clortetracycline] + CO[C@@]12[C@H](COC(N)=O)C3=C(C(=O)C(C)=C(N)C3=O)N1C[C@@H]1N[C@@H]12 [MitomycinC]	0.0447	-0.0551	0.104	-0.0402
CN(C)[C@@H]1C(O)=C(C(N)=O)C(=O)[C@@]2(O)C(O)=C3C(=O)c4c(O)ccc(Cl)c4[C@@](C)(O)[C@H]3C[C@@H]12 [Clortetracycline] + CN[C@@H]1[C@H](O)[C@H](NC)[C@H]2O[C@@]3(O)C(=O)C[C@@H](C)O[C@H]3O[C@@H]2[C@H]1O [Spectinomycin]	-0.0478	-0.0598	-0.0716	0.0439
CC(=O)Oc1ccccc1C(=O)O [Acetylsalicylicacid] + CC1=C(C(=O)O)N2C(=O)[C@@H](NC(=O)[C@H](N)c3ccccc3)[C@H]2SC1 [Cephalexin]	0.108	0.0849	0.0494	0.241
O=C(O)c1cn(C2CC2)c2cc(N3CCNCC3)c(F)cc2c1=O [Ciprofloxacin] + CC(=O)O[C@H]1C[C@@]2(C)[C@@H](C[C@@H](O)[C@H]3[C@@]4(C)CC[C@@H](O)[C@@H](C)[C@@H]4CC[C@@]32C)/C1=C(\CCC=C(C)C)C(=O)O [Fusidic acid]	0.19	0.04	0.0831	0.0674
COc1ccc(C[C@H](N)C(=O)N[C@H]2[C@@H](O)[C@H](n3cnc4c(N(C)C)ncnc43)O[C@@H]2CO)cc1 [Puromycin] + CC[C@H]1OC(=O)[C@H](C)C(=O)[C@H](C)[C@@H](O[C@@H]2O[C@H](C)C[C@H](N(C)C)[C@H]2O)[C@](C)(OC)C[C@@H](C)C(=O)[C@H](C)[C@H]2N(CCCCn3cnc(-c4cccnc4)c3)C(=O)O[C@]12C [Telithromycin]	0.0276	0.045	-0.0571	-0.0651
N#CC(C#N)=NNc1cccc(Cl)c1 [CCCP] + CCC[C@@H]1C[C@@H](C(=O)N[C@@H]([C@H]2O[C@H](SC)[C@H](O)[C@@H](O)[C@H]2O)[C@H](C)Cl)N(C)C1 [Clindamycin]	-0.0426	0.0216	0.0938	-0.138
COc1cccc2c1C(=O)c1c(O)c3c(c(O)c1C2=O)C[C@@](O)(C(=O)CO)C[C@@H]3O[C@H]1C[C@H](N)[C@H](O)[C@H](C)O1 [Doxorubicin] + CC(=O)O[C@H]1C[C@@]2(C)[C@@H](C[C@@H](O)[C@H]3[C@@]4(C)CC[C@@H](O)[C@@H](C)[C@@H]4CC[C@@]32C)/C1=C(\CCC=C(C)C)C(=O)O [Fusidic acid]	0.0613	-0.0285	0.0367	-0.0805
